Source: the supplement of paper PMC10307832

Experiments:
Experiment in all cases: relative viability (nuclei count vs DMSO), 5 days (fraction); higher = more cells survive
AZD6482 + AZD7762 = compound: Cc1cc([C@@H](C)Nc2ccccc2C(=O)O)c2nc(N3CCOCC3)cc(=O)n2c1 [AZD6482] + NC(=O)Nc1cc(-c2cccc(F)c2)sc1C(=O)N[C@H]1CCCNC1 [AZD7762] (partner 0.2 µM)
Summary of the method: (§1)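 One day after seeding in 1536-well plates, lung cancer cell lines were dosed by pin tool. Dosing was either single-drug or a fixed anchor-drug dose plus five library-drug doses (not always all listed) in √10 steps. After 5 days, nuclei were stained in one fix-and-stain step and counted on 4× images, and relative viability is the nuclei count of treated wells over that of vehicle wells, given as the median of duplicate plates.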

AZD6482 + Luminespib = compound: Cc1cc([C@@H](C)Nc2ccccc2C(=O)O)c2nc(N3CCOCC3)cc(=O)n2c1 [AZD6482] + CCNC(=O)c1noc(-c2cc(C(C)C)c(O)cc2O)c1-c1ccc(CN2CCOCC2)cc1 [Luminespib] (partner 0.01 µM)
Summary of the method: as §1

[1] = compound: COc1cc2nc(N3CCCN(C)CC3)nc(NC3CCN(Cc4ccccc4)CC3)c2cc1OC + COc1cccc2cc(-c3nc([C@H]4CC[C@H](C(=O)O)CC4)n4ncnc(N)c34)[nH]c12 [OSI-027] (partner 0.5 µM)
Summary of the method: as §1

AZD6482 + Lapatinib = compound: Cc1cc([C@@H](C)Nc2ccccc2C(=O)O)c2nc(N3CCOCC3)cc(=O)n2c1 [AZD6482] + CS(=O)(=O)CCNCc1ccc(-c2ccc3ncnc(Nc4ccc(OCc5cccc(F)c5)c(Cl)c4)c3c2)o1 [Lapatinib] (partner 2 µM)
Summary of the method: as §1

Cell Line | relative viability (AZD6482 + AZD7762; first compound 0.08 µM) | relative viability (AZD6482 + AZD7762; first compound 0.253 µM) | relative viability (AZD6482 + AZD7762; first compound 0.8 µM) | relative viability (AZD6482 + AZD7762; first compound 2.53 µM) | relative viability (AZD6482 + AZD7762; first compound 8 µM) | relative viability (AZD6482 + Luminespib; first compound 0.08 µM) | relative viability (AZD6482 + Luminespib; first compound 0.253 µM) | relative viability (AZD6482 + Luminespib; first compound 0.8 µM) | relative viability (AZD6482 + Luminespib; first compound 2.53 µM) | relative viability (AZD6482 + Luminespib; first compound 8 µM) | relative viability ([1]; first compound 0.2 µM) | relative viability ([1]; first compound 0.6325 µM) | relative viability ([1]; first compound 2 µM) | relative viability ([1]; first compound 6.325 µM) | relative viability (AZD6482 + Lapatinib; first compound 0.08 µM) | relative viability (AZD6482 + Lapatinib; first compound 0.253 µM) | relative viability (AZD6482 + Lapatinib; first compound 0.8 µM) | relative viability (AZD6482 + Lapatinib; first compound 2.53 µM) | relative viability (AZD6482 + Lapatinib; first compound 8 µM)
NCI-H596 | 0.874 | 1.05 | 1.07 | 0.925 | 0.966 | 0.92 | 0.815 | 0.848 | 0.812 | 0.801 | 0.771 | 0.786 | 0.866 | 0.667 | 0.722 | 0.953 | 1.06 | 0.873 | 0.853
NCI-H647 | 0.365 | 0.445 | 0.495 | 0.191 | 0.235 | 0.167 | 0.121 | 0.147 | 0.193 | 0.146 | 0.597 | 0.664 | 0.62 | 0.272 | 0.843 | – | 0.804 | 0.524 | 0.744
NCI-H650 | 1.06 | 0.918 | 1.12 | 0.77 | 0.619 | 0.657 | – | 0.898 | 0.647 | 0.509 | 0.532 | 0.483 | 0.508 | 0.329 | 0.999 | – | 0.948 | 0.454 | 0.534
NCI-H727 | 0.684 | 0.596 | 0.596 | – | 0.578 | 0.245 | 0.348 | 0.786 | 0.292 | 0.345 | 0.511 | 0.68 | 0.535 | 0.565 | 0.659 | 0.843 | 0.951 | – | 0.667
NCI-H838 | 0.936 | 0.902 | 0.934 | 0.78 | 0.759 | 0.246 | 0.355 | 0.265 | 0.193 | 0.332 | 0.433 | 0.429 | 0.362 | 0.375 | 0.776 | 0.783 | 0.894 | 0.482 | 0.6
NCI-H1355 | 0.642 | 0.755 | 0.745 | 0.681 | 0.65 | 0.53 | 0.556 | 0.702 | 0.422 | 0.52 | 0.393 | 0.456 | 0.467 | 0.401 | 0.694 | 0.903 | 0.956 | 0.678 | 0.717
NCI-H1395 | 0.393 | 0.393 | 0.44 | 0.405 | 0.411 | 0.541 | 0.601 | 0.514 | 0.376 | 0.482 | 0.715 | 0.731 | 0.677 | 0.419 | 0.787 | 0.741 | 0.836 | 0.511 | 0.562
NCI-H1437 | 1.16 | 1.07 | 1.16 | 1.03 | 0.836 | 1.16 | 1.2 | 1.14 | 0.969 | 1.15 | 0.901 | 0.876 | 0.85 | 0.918 | 0.727 | 0.747 | 0.769 | 0.592 | 0.421
SW 900 | 0.402 | 0.512 | 0.445 | 0.497 | 0.501 | 0.152 | 0.137 | 0.153 | – | 0.153 | 0.445 | 0.539 | 0.546 | 0.409 | – | – | – | – | –
